According to publication PMC6005897, “Ligand-Induced Variations in Structural and Dynamical Properties Within an Enzyme Superfamily” (Frontiers in Molecular Biosciences, 2018):
Like-named read-outs stand apart in the source and are kept apart here.

Tests used:
[1] = target: T1, human RNase 2 (RN2_Human) (Homo sapiens, UniProt P10153); assay: NMR chemical shift titration, ligand binding to human RNase 2
T1 construct: made in house; host or cells: Escherichia coli
Excerpt: (§1) The pH was carefully monitored throughout the experiments and readjusted with Tris-base or acetic acid if necessary. Ligands 3′-UMP (Chemical Impex Intl Inc., Wood Dale, IL, USA) and 5′-AMP (BioBasic Inc., Markham, ON Canada) were purchased commercially and dissolved in the same buffer as the protein. ^1H-^15N sensitivity-enhanced HSQC experiments were acquired at 800 MHz (18.8 T) using spectral widths (points) of 2025 (160) and 8000 Hz (1024) in the ω1 and ω2 dimensions, respectively. Titration experiments were performed for each ligand with enzyme:ligand molar ratios up to 1:12 (1:12), 1:18 (1:18), 1:24 (1:18), 1:30 (1:18) and 1:18 (1:30) for the 3′-UMP- (5′-AMP-) bound states of bovine RNase A and human RNases 2, 3, 4, and 5, respectively.
(§2) The equilibrium dissociation constant (Kd) was calculated by plotting weighted average chemical shift differences (Δδobs) as a function of ligand concentration and fitting the data using the following equation: […]
(§3) The Kd was estimated by simultaneously fitting the data of all residues affected by ligand binding (Williamson, [2013]). We note that Δδmax is a fitted parameter and not an experimentally measured one. […] Chemical shift perturbations (Δδobs) were calculated as the difference in the weighted average chemical shift of the ligand-bound (5′-AMP and 3′-UMP) and apo states, as shown below. […]

[2] = target: T2, human RNase 3 (RN3_Human) (Homo sapiens, UniProt P12724); assay: NMR chemical shift titration, ligand binding to human RNase 3
T2 construct: made in house; host or cells: Escherichia coli
T2 sequence (P12724 28-160): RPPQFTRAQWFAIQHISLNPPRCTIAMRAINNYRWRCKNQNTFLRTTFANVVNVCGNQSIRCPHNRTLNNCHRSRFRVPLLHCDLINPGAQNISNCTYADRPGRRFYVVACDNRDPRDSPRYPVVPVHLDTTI
Excerpt: as §1
The equilibrium dissociation constant (Kd) was calculated by plotting weighted average chemical shift differences (Δδobs) as a function of ligand concentration and fitting the data using the following equation:
(1) Δδobs=Δδmax/2[P]t([P]t+[L]t/[P]t[P]t+Kd −([P]t+[L]t/[P]t[P]t+Kd)^2−4[L]t/[P]t[P]^2t)
The Kd was estimated by simultaneously fitting the data of all residues affected by ligand binding (Williamson, [2013]). We note that Δδmax is a fitted parameter and not an experimentally measured one. Uncertainties on these values are given by the standard deviations of the fits. Chemical shift perturbations (Δδobs) were calculated as the difference in the weighted average chemical shift of the ligand-bound (5′-AMP and 3′-UMP) and apo states, as shown below.
(2) Δδobs=(ΔδH)^2+(0.2ΔδN)^2/2

[3] = target: bovine RNase A (RNA_Bovine); design: method as in Gagné et al. ([2012]); details: ref Gagné et al. ([2012]); cited from earlier work
[4] = target: T3, human RNase 4 (RN4_Human) (Homo sapiens, UniProt P34096); assay: NMR chemical shift titration, ligand binding to human RNase 4; details: 298 K, 15 mM sodium acetate pH 5.0, ± standard deviation of the fit
T3 construct: made in house; host or cells: Escherichia coli
T3 sequence (P34096 29-147): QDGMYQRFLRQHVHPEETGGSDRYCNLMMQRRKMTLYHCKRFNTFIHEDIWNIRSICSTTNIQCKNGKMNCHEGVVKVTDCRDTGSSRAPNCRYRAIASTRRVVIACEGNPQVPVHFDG
Excerpt: as §1, §2, §3

[5] = target: T4, human RNase 5 (RN5_Human) (Homo sapiens, UniProt P03950); assay: NMR chemical shift titration, ligand binding to human RNase 5; details: 298 K, 15 mM sodium acetate pH 5.0, ± standard deviation of the fit
T4 construct: made in house; host or cells: Escherichia coli
Excerpt: as §1, §2, §3

[6] = RN3_Human, 298 K, 15 mM sodium acetate pH 5.0, ± standard deviation of the fit, read-out: Kd

T1 sequence (P10153 28-161): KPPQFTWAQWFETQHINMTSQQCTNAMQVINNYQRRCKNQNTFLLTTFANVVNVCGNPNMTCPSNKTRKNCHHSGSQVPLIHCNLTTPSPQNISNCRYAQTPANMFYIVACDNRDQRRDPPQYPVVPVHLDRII
T4 sequence (P03950 25-147): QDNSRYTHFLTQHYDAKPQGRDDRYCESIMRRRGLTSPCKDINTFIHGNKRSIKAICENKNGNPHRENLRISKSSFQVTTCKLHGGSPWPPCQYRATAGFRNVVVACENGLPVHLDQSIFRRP

Row | Compound | Kd ([1]; RN2_Human, 298 K, 15 mM sodium acetate pH 5.0, ± standard deviation of the fit, read-out: Kd) [µM] | Kd [2] [µM] | Kd [3] [µM] | Kd [4] [mM] | Kd [2, 6] [µM] | Kd [5] [mM] | Kd [1] [µM]
1 | Nc1ncnc2c1ncn2[C@@H]1O[C@H](COP(=O)(O)O)[C@@H](O)[C@H]1O [5′-AMP] | 540 ± 31.4 | 300 ± 45 | 124 ± 1 |  |  |  | 
2 | dATATA |  |  |  | 0.0729 ± 0.009 | 302 ± 31 |  | 
3 | O=c1ccn([C@@H]2O[C@H](CO)[C@@H](OP(=O)(O)O)[C@H]2O)c(=O)[nH]1 [3′-UMP] |  |  | 9.7 ± 0.9 | 10.3 | 460 ± 100 | 1.94 | 456 ± 10.6
